Results from ChEMBL document CHEMBL1201862, “PubChem BioAssay data set” (2004).
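Interpolation was linear, between the two tested concentrations surrounding the appropriate level; five concentrations were tested over 48 hours in 96-well plates. Abbreviation: GI50, concentration required for 50% inhibition of growth.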 Calls of active or inactive are those of the source. Rule as the data show it: active = GI50 up to about 1.1 µM and inactive = higher.

How the values were obtained:
Test in all cases: growth of human tumour cells (NCI), 48 h
SK-MEL-2 = system: SK-MEL-2
M14 = system: M14
MDA-N = system: MDA-N
UO-31 = system: UO-31
NCI-H226 = system: NCI-H226
UACC-62 = system: UACC-62
TK-10 = system: TK-10
COLO 205 = system: COLO 205
HCC 2998 = system: HCC 2998
ACHN = system: ACHN
SF-295 = system: SF-295
OVCAR-5 = system: OVCAR-5
CCRF-CEM = system: CCRF-CEM
SNB-19 = system: SNB-19
T47D = system: T47D
SF-539 = system: SF-539
RXF 393 = system: RXF 393
HCT-116 = system: HCT-116
UACC-257 = system: UACC-257
A549 = system: A549
IGROV-1 = system: IGROV-1
HT-29 = system: HT-29
Hs-578T = system: Hs-578T
HCT-15 = system: HCT-15
MOLT-4 = system: MOLT-4
SNB-75 = system: SNB-75
DU-145 = system: DU-145
SK-MEL-28 = system: SK-MEL-28
MDA-MB-231 = system: MDA-MB-231
NCI-H460 = system: NCI-H460
786-0 = system: 786-0
SK-MEL-5 = system: SK-MEL-5
OVCAR-8 = system: OVCAR-8
SR = system: SR
NCI-H23 = system: NCI-H23
OVCAR-3 = system: OVCAR-3
SN12C = system: SN12C
NCI-H522 = system: NCI-H522
SF-268 = system: SF-268
SW-620 = system: SW-620
HL-60 = system: HL-60
Malme-3M = system: Malme-3M
MCF7 = system: MCF7
EKVX = system: EKVX
K562 = system: K562
OVCAR-4 = system: OVCAR-4
BT-549 = system: BT-549
SK-OV-3 = system: SK-OV-3
HOP-92 = system: HOP-92
NCI/ADR-RES = system: NCI/ADR-RES
MDA-MB-435 = system: MDA-MB-435
HOP-62 = system: HOP-62
KM12 = system: KM12
LOX IMVI = system: LOX IMVI
PC-3 = system: PC-3
U-251 = system: U-251
A498 = system: A498
CAKI-1 = system: CAKI-1
RPMI-8226 = system: RPMI-8226
DMS-114 = system: DMS-114
DLD-1 = system: DLD-1
M19-MEL = system: M19-MEL
LXFL 529 = system: LXFL 529
XF498 = system: XF498
KM-20L2 = system: KM-20L2

O=c1[nH]cnc2c1ncn2C1SC(CO)C(O)C1O (stereo unspecified)
GI50 (SK-MEL-2): > 100 µM (inactive)
GI50 (M14): > 100 µM (inactive)
GI50 (MDA-N): > 100 µM (inactive)
GI50 (UO-31): > 100 µM (inactive)
GI50 (NCI-H226): > 100 µM (inactive)
GI50 (UACC-62): > 100 µM (inactive)
GI50 (TK-10): > 100 µM (inactive)
GI50 (COLO 205): > 100 µM (inactive)
GI50 (HCC 2998): > 100 µM (inactive)
GI50 (ACHN): > 100 µM (inactive)
GI50 (SF-295): > 100 µM (inactive)
GI50 (OVCAR-5): > 100 µM (inactive)
GI50 (CCRF-CEM): > 100 µM (inactive)
GI50 (SNB-19): > 100 µM (inactive)
GI50 (T47D): > 100 µM (inactive)
GI50 (SF-539): > 100 µM (inactive)
GI50 (RXF 393): > 100 µM (inactive)
GI50 (HCT-116): > 100 µM (inactive)
GI50 (UACC-257): > 100 µM (inactive)
GI50 (A549): > 100 µM (inactive)
GI50 (IGROV-1): > 100 µM (inactive)
GI50 (HT-29): > 100 µM (inactive)
GI50 (Hs-578T): > 100 µM (inactive)
GI50 (HCT-15): > 100 µM
GI50 (MOLT-4): > 100 µM (inactive)
GI50 (SNB-75): > 100 µM (inactive)
GI50 (DU-145): > 100 µM (inactive)
GI50 (SK-MEL-28): > 100 µM (inactive)
GI50 (MDA-MB-231): > 100 µM (inactive)
GI50 (NCI-H460): > 100 µM (inactive)
GI50 (786-0): > 100 µM (inactive)
GI50 (SK-MEL-5): > 100 µM (inactive)
GI50 (OVCAR-8): > 100 µM (inactive)
GI50 (SR): > 100 µM (inactive)
GI50 (NCI-H23): > 100 µM (inactive)
GI50 (OVCAR-3): > 100 µM (inactive)
GI50 (SN12C): > 100 µM (inactive)
GI50 (NCI-H522): > 100 µM (inactive)
GI50 (SF-268): > 100 µM (inactive)
GI50 (SW-620): > 100 µM (inactive)
GI50 (HL-60): > 100 µM (inactive)
GI50 (Malme-3M): > 100 µM (inactive)
GI50 (MCF7): > 100 µM (inactive)
GI50 (EKVX): > 100 µM (inactive)
GI50 (K562): > 100 µM (inactive)
GI50 (OVCAR-4): > 100 µM (inactive)
GI50 (BT-549): > 100 µM (inactive)
GI50 (SK-OV-3): > 100 µM (inactive)
GI50 (HOP-92): > 100 µM (inactive)
GI50 (NCI/ADR-RES): > 100 µM (inactive)
GI50 (MDA-MB-435): > 100 µM (inactive)
GI50 (HOP-62): > 100 µM (inactive)
GI50 (KM12): > 100 µM (inactive)
GI50 (LOX IMVI): > 100 µM (inactive)
GI50 (PC-3): > 100 µM (inactive)
GI50 (U-251): > 100 µM (inactive)
GI50 (A498): > 100 µM (inactive)
GI50 (CAKI-1): > 100 µM (inactive)
GI50 (RPMI-8226): > 100 µM (inactive)

CC[C@H](C)[C@H]1NC(=O)[C@@H](NC(=O)[C@@H](CC(C)C)N(C)CC2CCCN2C(=O)C(C)=O)[C@@H](C)OC(=O)[C@H](Cc2ccc(OC)cc2)N(C)C(=O)C2CCCN2C(=O)[C@H](CC(C)C)NC(=O)[C@@H](C)C(=O)[C@H](C(C)C)OC(=O)C[C@@H]1O (stereo partly specified)
GI50 (SK-MEL-2): 0.00351 µM (active)
GI50 (M14): 0.00374 µM (active)
GI50 (MDA-N): 0.00508 µM (active)
GI50 (UO-31): 0.00893 µM (active)
GI50 (NCI-H226): 0.0152 µM (active)
GI50 (UACC-62): 0.00294 µM (active)
GI50 (TK-10): 0.00853 µM (active)
GI50 (COLO 205): 0.00293 µM (active)
GI50 (HCC 2998): 0.00448 µM (active)
GI50 (ACHN): 0.00444 µM (active)
GI50 (SF-295): 0.00371 µM (active)
GI50 (OVCAR-5): 0.00393 µM (active)
GI50 (CCRF-CEM): < 0.0025 µM (active)
GI50 (SNB-19): 0.00356 µM (active)
GI50 (T47D): 0.00344 µM (active)
GI50 (SF-539): < 0.0025 µM (active)
GI50 (RXF 393): < 0.0025 µM (active)
GI50 (HCT-116): 0.00308 µM (active)
GI50 (UACC-257): 0.00443 µM (active)
GI50 (A549): 0.00356 µM (active)
GI50 (IGROV-1): < 0.0025 µM (active)
GI50 (HT-29): 0.00255 µM (active)
GI50 (Hs-578T): 0.00405 µM (active)
GI50 (HCT-15): 0.0769 µM
GI50 (MOLT-4): < 0.0025 µM (active)
GI50 (SNB-75): 0.00317 µM (active)
GI50 (DU-145): < 0.0025 µM (active)
GI50 (SK-MEL-28): 0.0049 µM (active)
GI50 (MDA-MB-231): 0.00432 µM (active)
GI50 (NCI-H460): 0.00381 µM (active)
GI50 (786-0): 0.00494 µM (active)
GI50 (SK-MEL-5): 0.00311 µM (active)
GI50 (OVCAR-8): 0.00372 µM (active)
GI50 (SR): 0.00251 µM (active)
GI50 (NCI-H23): 0.00719 µM (active)
GI50 (OVCAR-3): 0.00324 µM (active)
GI50 (SN12C): 0.00545 µM (active)
GI50 (NCI-H522): 0.00564 µM (active)
GI50 (SF-268): 0.00488 µM (active)
GI50 (SW-620): 0.00409 µM (active)
GI50 (HL-60): 0.00476 µM (active)
GI50 (Malme-3M): 0.00681 µM (active)
GI50 (MCF7): < 0.0025 µM (active)
GI50 (EKVX): 0.00379 µM (active)
GI50 (K562): 0.00531 µM (active)
GI50 (OVCAR-4): < 0.0025 µM (active)
GI50 (BT-549): 0.0047 µM (active)
GI50 (SK-OV-3): 0.00376 µM (active)
GI50 (HOP-92): 0.00403 µM (active)
GI50 (NCI/ADR-RES): 0.0179 µM (active)
GI50 (MDA-MB-435): 0.00371 µM (active)
GI50 (HOP-62): 0.00361 µM (active)
GI50 (KM12): 0.00302 µM (active)
GI50 (LOX IMVI): 0.00291 µM (active)
GI50 (PC-3): 0.00406 µM (active)
GI50 (U-251): < 0.0025 µM (active)
GI50 (A498): 0.00471 µM (active)
GI50 (CAKI-1): 0.0221 µM (active)
GI50 (RPMI-8226): 0.00313 µM (active)

C/C(=N\O)C(CN1CCCCC1)C(c1ccccc1)c1c(O)c2ccccc2oc1=O (stereo unspecified)
GI50 (SK-MEL-2): > 100 µM (inactive)
GI50 (M14): > 100 µM (inactive)
GI50 (NCI-H226): > 100 µM (inactive)
GI50 (DMS-114): > 100 µM (inactive)
GI50 (UACC-62): > 100 µM (inactive)
GI50 (TK-10): > 100 µM (inactive)
GI50 (COLO 205): > 100 µM (inactive)
GI50 (HCC 2998): > 100 µM (inactive)
GI50 (ACHN): > 100 µM (inactive)
GI50 (SF-295): 54.8 µM (inactive)
GI50 (OVCAR-5): > 100 µM (inactive)
GI50 (CCRF-CEM): > 10 µM (inactive)
GI50 (DLD-1): > 100 µM (inactive)
GI50 (SNB-19): > 100 µM (inactive)
GI50 (SF-539): > 100 µM (inactive)
GI50 (RXF 393): > 100 µM (inactive)
GI50 (M19-MEL): > 100 µM (inactive)
GI50 (HCT-116): > 100 µM (inactive)
GI50 (UACC-257): > 100 µM (inactive)
GI50 (A549): > 100 µM (inactive)
GI50 (IGROV-1): > 100 µM (inactive)
GI50 (HT-29): > 100 µM (inactive)
GI50 (LXFL 529): > 100 µM (inactive)
GI50 (SNB-75): > 100 µM (inactive)
GI50 (XF498): > 100 µM (inactive)
GI50 (SK-MEL-28): > 100 µM (inactive)
GI50 (786-0): > 100 µM (inactive)
GI50 (SK-MEL-5): > 100 µM (inactive)
GI50 (OVCAR-8): > 100 µM (inactive)
GI50 (NCI-H23): > 100 µM (inactive)
GI50 (OVCAR-3): > 100 µM (inactive)
GI50 (SN12C): > 100 µM (inactive)
GI50 (NCI-H522): > 100 µM (inactive)
GI50 (SF-268): > 100 µM (inactive)
GI50 (SW-620): > 100 µM (inactive)
GI50 (HL-60): > 10 µM (inactive)
GI50 (Malme-3M): > 100 µM (inactive)
GI50 (EKVX): > 100 µM (inactive)
GI50 (K562): > 10 µM (inactive)
GI50 (OVCAR-4): > 100 µM (inactive)
GI50 (SK-OV-3): > 100 µM (inactive)
GI50 (HOP-92): 62.1 µM (inactive)
GI50 (KM-20L2): > 100 µM (inactive)
GI50 (HOP-62): > 100 µM (inactive)
GI50 (LOX IMVI): > 100 µM (inactive)
GI50 (A498): > 100 µM (inactive)
GI50 (CAKI-1): > 100 µM (inactive)
GI50 (RPMI-8226): > 100 µM (inactive)
